Assays:
huGRP78-NBD = biological target: T1, huGRP78-NBD (Homo sapiens, UniProt P11021); test: SPR (Biacore) binding to human GRP78-NBD; settings: ± standard error; calculated from kinetic constants; 25 °C; read-out: affinity constant (Kd) determined by SPR, huGRP78-NBD
T1 construct: PfGRP78-NBD wild type and mutant, and human GRP78-NBD were buffered in 25 mM hepes pH 7.5
Experimental: (§1) To quantify the binding affinities of PfGRP78-NBD for the selected compounds, dissociation constants (Kd) were determined by surface plasmon resonance (SPR). […] Purified PfGRP78-FL, PfGRP78-NBD wild-type and mutant, and human GRP78-NBD were immobilized on a CM5 sensorchip using NHS/EDC coupling following the manufacturer protocol to a level of <10,000 RUs, a reference surfaces without immobilized proteins served as a control for nonspecific binding and refractive index changes. […] The running buffer was 10 mM HEPES, pH 7.4, 150 mM NaCl, 0.005% P20, 1% DMSO and 2 mM MgCl2. Buffer only injections were used as blanks. The Biacore responses recorded during the 30 seconds of the injection were used to estimate the association constant (kon) and the 300 seconds after the injection were used to estimate the dissociation constant (koff). All dissociation and kinetic constants were estimated using double subtracted sensorgrams[40] using BiaEvaluation Software (GE Healthcare). All the reported parasite dissociation constants (Kd) were estimated with affinity analysis, and all the reported human Kds were calculated from kinetic constants.

PfGRP78 = biological target: T2, PfGRP78 (Plasmodium falciparum, UniProt Q05866); test: PfGRP78 protein levels by immuno-blot after exposure of P. falciparum W2 culture; type: cell-based
T2 construct: endogenous in cells; host or cells: P. falciparum W2 culture in human red blood cells
T2 sequence (Q05866 25-652): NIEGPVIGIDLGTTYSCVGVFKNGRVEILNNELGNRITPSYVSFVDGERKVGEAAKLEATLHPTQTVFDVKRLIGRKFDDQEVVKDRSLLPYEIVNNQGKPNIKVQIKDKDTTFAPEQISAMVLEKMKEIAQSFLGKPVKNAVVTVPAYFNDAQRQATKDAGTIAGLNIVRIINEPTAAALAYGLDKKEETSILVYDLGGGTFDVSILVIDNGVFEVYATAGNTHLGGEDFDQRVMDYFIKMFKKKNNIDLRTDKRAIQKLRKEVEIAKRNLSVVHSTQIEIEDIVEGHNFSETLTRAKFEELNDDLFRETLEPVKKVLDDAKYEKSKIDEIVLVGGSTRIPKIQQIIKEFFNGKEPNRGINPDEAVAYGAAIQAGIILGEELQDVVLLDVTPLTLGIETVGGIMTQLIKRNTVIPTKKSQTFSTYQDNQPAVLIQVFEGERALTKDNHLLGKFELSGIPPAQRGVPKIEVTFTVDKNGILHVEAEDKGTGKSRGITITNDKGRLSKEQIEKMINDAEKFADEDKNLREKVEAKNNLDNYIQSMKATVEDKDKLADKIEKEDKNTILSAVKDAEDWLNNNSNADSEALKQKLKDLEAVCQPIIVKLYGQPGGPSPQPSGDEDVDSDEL
Experimental: Culture aliquots were taken at several time points and the PfGRP78 levels of were evaluated by immuno-blots (Fig. 4). […] Thus, providing further support to the notion that Apoptozole antiplasmodial activity is mediated by its effect on PfGRP78.
A 55 ml suspension of ring-stage P. falciparum W2 parasites at 1.5% parasitaemia and 1.5% of hematocrit were split into 11 culture dishes of 5 ml each. One culture plate was served as a starting point (0 h) and of the remaining ten culture plates, half were exposed to 45 µM Apoptozole and half to DMSO 0.09% for 6 h. After 6 h the Apoptozole or DMSO were removed by washing the parasite culture with complete media twice. Culture dishes contained control (DMSO) and Apoptozole treated parasites were incubated at 37 °C in 5% O2 and 5% CO2 atmosphere throughout the duration of the experiment. One of each control and treated group were harvest at times 1, 3, 6, 24 and 48 hours. Samples were processed by harvesting the red blood cell using centrifugation 5 min at 5000 g and washed twice with PBS 1 × 5000 g for 1 min at 4 °C. The pellet was resuspended in 1 ml of 0.02% saponin-PBS solution (Sigma, Aldrich) and centrifuged 10 min 11000 g at 4 °C. The parasite pellet was washed twice with PBS and resuspended in 100 µl PBS. A 30 µl sample was mixed with 30 µl of Laemlii lysis buffer (BioRad) and 3 µl 14.1 M 2-mercaptoethanol (BioRad) and boiled for 10 min. […]

HCT-116 = test: Growth inhibition of human cell line; type: cell-based
Experimental: (§2) Growth inhibition experiments were conducted at least three times per compound. […] The statistical analysis was performed with the software Prism 7 (GraphPad Software, San Diego, CA).

PfGRP78-NBD wt = biological target: T3, PfGRP78-NBD wt (Plasmodium falciparum, UniProt Q05866); test: biochemical; type: binding
T3 construct: His-tag (pET28-MHL, TEV site) (N, cleaved yes); made in house; host or cells: E. coli BL21(DE3)
T3 sequence (Q05866 26-404): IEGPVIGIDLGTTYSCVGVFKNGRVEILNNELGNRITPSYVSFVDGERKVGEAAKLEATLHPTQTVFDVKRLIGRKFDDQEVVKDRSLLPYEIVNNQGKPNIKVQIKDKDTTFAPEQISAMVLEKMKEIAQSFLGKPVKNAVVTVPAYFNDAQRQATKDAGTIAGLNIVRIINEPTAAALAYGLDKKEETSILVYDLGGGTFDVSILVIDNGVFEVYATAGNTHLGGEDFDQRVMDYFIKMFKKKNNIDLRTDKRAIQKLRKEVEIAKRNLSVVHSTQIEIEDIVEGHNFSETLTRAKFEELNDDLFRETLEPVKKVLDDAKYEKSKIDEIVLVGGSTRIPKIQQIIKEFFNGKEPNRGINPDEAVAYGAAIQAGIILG
Experimental: as §1

Plasmodium falciparum W2 = test: In vitro growth inhibition assay (SYBR Green I), strain W2; type: cell-based; settings: Plasmodium falciparum, W2; chloroquine-resistant strain; 72 hours; average of three ± SD; read-out: EC50, growth inhibition, P. falciparum W2
Experimental: A major goal of our study was to evaluate the drug target potential of P. falciparum GRP78, thus we evaluated the effect of the chaperone inhibition on the malaria parasite. Our approach took advantage of several GRP78 inhibitors (Fig. 3a) previously characterized against human cancer cell lines, which were commercially available[20],[24]–[27]. These compounds were tested against two different parasite strains with opposite sensitivity towards the antimalarial drug chloroquine, 3D7 (sensitive) and W2 (resistant). […] A synchronized P. falciparum culture, with over 80% ring forms, was used in the growth inhibition assay. Each strain was assayed at 0.5% parasitaemia and 1.5% hematocrit. A 190 µL aliquot of parasite culture was dispensed per well to microplates that were pre-dispensed with the compounds at various dilutions. […] Dilutions of GRP78 inhibitors and DHA were prepared in water with a final concentration of DMSO below 0.05% (v/v). […] After incubation, the plates were subject to a freeze-thaw cycle (−80 °C) and the parasite growth was quantified by the SYBR Green I method as previously described. Briefly, 100 µl of homogenized parasite culture was transferred into 96-well black plates. 100 µl of SYBR Green lysis buffer (2x SYBR Green I, 100 mM Tris-HCl pH 7.5, 10 mM EDTA, 0.016% Saponin and 1.6% Triton X-100) were added to each well. The plates were incubated at room temperature in darkness for 1 hour.
as §2

T1 sequence (P11021 26-407 limits assumed): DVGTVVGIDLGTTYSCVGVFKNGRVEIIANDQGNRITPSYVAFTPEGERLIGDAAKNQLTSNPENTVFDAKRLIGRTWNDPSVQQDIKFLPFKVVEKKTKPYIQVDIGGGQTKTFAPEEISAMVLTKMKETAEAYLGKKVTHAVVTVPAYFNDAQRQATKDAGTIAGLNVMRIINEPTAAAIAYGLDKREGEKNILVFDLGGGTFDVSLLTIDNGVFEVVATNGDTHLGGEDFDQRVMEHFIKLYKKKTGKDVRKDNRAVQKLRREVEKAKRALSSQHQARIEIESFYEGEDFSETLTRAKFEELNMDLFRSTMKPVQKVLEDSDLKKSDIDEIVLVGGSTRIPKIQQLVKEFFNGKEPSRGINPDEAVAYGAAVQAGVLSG

COc1ccc(-c2nc(-c3cc(C(F)(F)F)cc(C(F)(F)F)c3)n(Cc3ccc(C(N)=O)cc3)c2-c2ccc(OC)cc2)cc1 [Apoptozole]
Kd (huGRP78-NBD): 6.9 ± 0.33 µM | PfGRP78 levels, first 6 hours (PfGRP78; 45 µM (10xEC50) for 6 h): did not changed | PfGRP78 levels, 24 and 48 h time points (PfGRP78; 45 µM (10xEC50) for 6 h then washed): clear reduction | EC50 (HCT-116; HCT-116, human cell line, average of three ± SD, read-out: EC50, growth inhibition, HCT-116): 16.5 ± 12.8 µM | times more selective towards P. falciparum (HCT-116; HCT-116 vs P. falciparum EC50, Results text b30): 2.9 times | Kd (PfGRP78-NBD wt): 4.27 ± 0.86 µM | EC50 (Plasmodium falciparum W2): 4.5 ± 0.4 µM

Reference: paper PMC6037779, “Repurposing drugs to target the malaria parasite unfolding protein response” (Scientific Reports, 2018)
